Test [1] concerns atrial fibrillation (AF) in anesthetized thoracotomy dog. The test is described as follows: Effect of termination and prevention of atrium fibrillation (AF) in anesthetized thoracotomy dog. Type of test: in vivo. The conditions noted are these: samples with effect / samples tested. An excerpt: (1) An anesthetized thoracotomy dog was used for the present experiment. After opening brisket at a median line and cutting epicardium, bipolar electrodes for determination of a potential wave form were respectively stitched at the free walls of right and left atriums. Further, a wire electrode was inserted in the free wall of a right atrium to be fixed and used for electrical simulation. After cutting cervix at a median line, right and left vagal nerves were peeled. Wire electrodes for stimulating vagal nerves were inserted along the surface layers of the respective both sides to be fixed and used as stimulation for vagal nerves.
(2) Electrical stimulation was carried out under conditions: a stimulation duration of 0.1 mess; a x stimulation frequency of 20 Hz; and a stimulation intensity of 3 to 7 V. After 5 minutes of the start of the stimulation, high frequency stimulation (10 Hz, 1 sec) was applied to the right atrium, and the induction of atrial fibrillation (hereinafter, abbreviated as “AF”) was tried. The stimulation intensity of high frequency stimulation of the right atrium was carried out from 1.0 V, and when AF was not induced, induction was tried by increasing the stimulation intensity to 5.0 V. After AF was induced, observation for 30 minutes was carried out, it was confirmed that AF is kept (control experiment). Further, when AF induced was not kept for 30 minutes, the experiment was stopped.
(3) After confirming that AF was kept for 30 minutes or more in the control experiment, the stimulation of vagal nerve was intercepted, and the dog was rested for about one hour to be recovered. After that, similarly, AF was induced again. Further, the stimulation of vagal nerve at this time was carried out at the higher stimulation intensity by about 2 V than at the control experiment. After 5 minutes of the induction of AF, the administration of a tested substance was carried out. The tested substance was administered intravenously over 5 minutes. After completion of the administration, observation was carried out for 5 minutes, and when the termination of AF was not observed, the dose was increased and the observation was similarly carried out. When AF was stopped, the induction of AF was tried again just after termination. At this time, when AF which was continued for one minute or more was induced again, it was judged as no effect of prevention, and experiment was similarly carried out by increasing the dose.
In the Table, the number of the denominator indicates the number of the sample used for test, and the number of the numerator indicates the number of the sample in which the effect was confirmed.

The subject of test [2] is atrial muscle of anesthetized thoracotomy dog. The experiment in a line: Effective refractory period (ERP) in anesthetized thoracotomy dog. Type of test: in vivo. The conditions noted are these: for Measurement Value of ERP: mean. An excerpt: (1) An anesthetized thoracotomy dog was used for the present experiment. After opening brisket at a median line and cutting epicardium, bipolar electrodes for determination of a potential wave form were respectively stitched at the free walls of right and left atriums. Further, a wire electrode was inserted in the free wall of a right atrium to be fixed and used for electrical simulation.
(2) A program electrical stimulation equipment was connected with the electrode for electrical stimulation at the right atrium, the electrical stimulation was carried out at a stimulation periodical length of 500 mess, and a threshold for the electrical stimulation was measured. The electrical stimulation intensity for the experiments below was set to carry out stimulation at 3-fold of this threshold. However, when the threshold was 0.7 V or less, the electrical stimulation was carried out at 2.0 V. Effective refractory period (ERP) provided early premature stimulation (S2) after the basic stimulation (S1) of 10 times, and the longest linking period in which atrium potential was not generated by the premature stimulation was referred to as ERP, while shortening the linking period (S1-S2) by 5 mess. Similar experiments were also carried out for the respective basic stimulation length (BCL) of 400, 300, 250 and 200 mess (control experiment: 1 series). After carrying out 2 times or more of the control experiments and confirming that ERP was stable, the tested substance was subsequently administered, and similar measurement was carried out. After the tested substance was administered once intravenously for 5 minutes, its keeping dose was subsequently administered intravenously. After 10 minutes of the administration start of the keeping dose, ERP was measured in the respective stimulation frequency. After completion of the one series of measurements, the concentration of the tested substance was increased and the similar experiments were repeated. The ERP and conduction time in the atrium in the respective stimulation frequency were compared with various indices under control condition. The result is shown by mean.

In test [3] the test system is rabbit atrial muscle. The test is described as follows: Assessment for rabbit atrial muscle, Vmax. The conditions noted are these: Oryctolagus cuniculus, 0.25 h; Test Example 4; right atrial muscle, stimulation frequency 4 Hz, 15 minutes. The method, then:
The specimen of the right atrial muscle which was enucleated from rabbit was used for the present experiment. The electrical stimulation was applied for the right atrial muscle which was enucleated, under conditions: a stimulation duration of 1 mess; a stimulation frequency of 4 Hz; and a stimulation intensity of about 1.2-fold of the threshold. The stimulation was provided from 30 minutes to 60 minutes before start of the experiment, and the condition of the specimen was stabilized. The action potential was recorded according to a glass microelectrode method. 3 M KCl was charged in the glass electrode, inserted in the specimen of the right atrium, and the action potential was recorded. Vmax is the parameter of the maximum upstroke slope of the action potential recorded, and a value which was automatically calculated by an action potential analysis soft (CAPA 1.23 manufactured by Physiotec. Co., Ltd.) was used. After the action potential in a normal Tyrode solution was recorded as control, the action potential after flowing the tested substances at respective concentrations for 15 minutes was recorded. The action of the tested substance for Vmax was calculated as an IC50 value.

The subject of test [4] is spontaneous nerve discharge of cut left saphenous nerve. The test is described as follows: Suppression of spontaneous nerve discharge (ectopic firing). Type of test: in vivo. The conditions noted are these: Test Example 5; rat, intravenous catheter, urethane anesthetized; read-out: Ectopic Firing (ID50 mg/kg). The method, then:
In order to assess the suppression action for spontaneous nerve discharge, the experiment was carried out by a method below, referring to “Burchiel, K J., Exp. Nuerol., 102, 249-253 (1988)”. Namely, for the rat in which spontaneous discharge was observed, the left saphenous nerve was cut off nearby knee articulatio before 1 week or more, and around 3 mm of the nerve was cut off so that the nerve was not adhered again. The left saphenous nerve was exposed under urethane (1 g/kg body weight) anesthetized, and about 1 cm of adjacent portion from the cut portion was peeled from a periphery tissue. Further, a catheter was preliminarily inserted in the vein of a right neck for administration of a compound. The peeled nerve was mounted on a platinum hook electrode, and liquid paraffin was put on it so that the nerve was not dried. The electrode was connected with a fine electrode amplifier, and the value was recorded on a computer through an AD/converter from an oscilloscope. The nerve discharge recorded was assessed by the number of ignition per 10 seconds using an analysis soft (AcqKnowledge).

The test system of test [5] is sodium channel of synaptosome of rat cerebral cortex. The experiment in a line: Assessment for sodium channel of synaptosome of rat cerebral cortex (SBFI). The following applies: read-out: SBFI (IC50 μM); Test Example 3; Veratridine 20 μM; 2 μM TTX as 100%. Format: cell-based. The method, then:
In the present experiment the synaptosome which was extracted from rat cerebral cortex was used. After sodium ion-sensitive dye, SBFI was taken in, the synaptosome was reacted with the respective tested substances (3 samples in 6 concentrations) at room temperature for 15 minutes in a 96 wells plate. The sodium channel inhibitory activity was measured using FDSS2000 of HAMAMATSU Photonics Co., Ltd. The sodium ion concentration in the synaptosome was measured once per 5 seconds using the fluorescent intensity of SBFI as an index. After measuring the control value 10 times, Veratridine was added so that the final concentration was 20 μM, and further measurement was carried out 30times. The inhibitory activity value of the tested substances for sodium channel was calculated, setting the action only by a measurement solution without the tested substance, as 0%, and the inhibitory activity caused by 2 μM of TTX which was a positive control, as 100%, as an inhibitory activity value corresponding to this action, using the increase of the fluorescent intensity of SBFI to the control value which was generated after addition of Veratridine, as an index.

The structures appear in SMILES notation. Counter-ions that a name gives are not always drawn.

`CS(=O)(=O)c1ccsc1CCC1CCN(Cc2ccc[nH]c2=O)CC1` [Example 135, 1-[(2-Oxo-1,2-dihydro-3-pyridinyl)methyl]-4-[2-(3-methylsulfonyl-2-thienyl)ethyl]piperidine]: the the termination effect is 1/3 in test [1] (dose 0.3 mg/kg intravenously over 5 minutes) and 2/2 in test [1] (dose 1 mg/kg intravenously over 5 minutes). In addition, the the prevention effect in test [1] (dose 0.3 mg/kg intravenously) was 1/1; in test [1] (dose 1 mg/kg intravenously) it was 2/2. Also, the “Measurement Value of ERP” value in test [2] (dose 0.1 mg/kg intravenously, BCL 200 msec) is 125.0 ms; in test [2] (dose 0.1 mg/kg intravenously, BCL 250 msec) it was 138.3 ms; in test [2] (dose 0.1 mg/kg intravenously, BCL 300 msec) it was 155.0 ms; in test [2] (dose 0.1 mg/kg intravenously, BCL 400 msec), 170.0 ms; in test [2] (dose 0.1 mg/kg intravenously, BCL 500 msec), 178.3 ms; in test [2] (dose 0.3 mg/kg intravenously, BCL 200 msec) it was 138.3 ms. Also, the “Measurement Value of ERP” value in test [2] (dose 0.3 mg/kg intravenously, BCL 250 msec) stood at 150.0 ms; in test [2] (dose 0.3 mg/kg intravenously, BCL 300 msec), 166.7 ms; in test [2] (dose 0.3 mg/kg intravenously, BCL 400 msec), 181.7 ms; in test [2] (dose 0.3 mg/kg intravenously, BCL 500 msec), 190.0 ms; in test [2] (dose 1 mg/kg intravenously, BCL 250 msec), 183.3 ms; in test [2] (dose 1 mg/kg intravenously, BCL 300 msec), 195.0 ms. Besides, the “Measurement Value of ERP” value came out at 203.3 ms in test [2] (dose 1 mg/kg intravenously, BCL 400 msec) and 208.3 ms in test [2] (dose 1 mg/kg intravenously, BCL 500 msec). For the same compound, the “Percent change in ERP versus pre-dose control” value (“Percent change” below) in test [2] (dose 0.1 mg/kg, BCL 200 msec) is 7.1%; in test [2] (dose 0.1 mg/kg, BCL 250 msec), 3.9%; in test [2] (dose 0.1 mg/kg, BCL 300 msec) it was 5.7%; in test [2] (dose 0.1 mg/kg, BCL 400 msec), 3.0%; in test [2] (dose 0.1 mg/kg, BCL 500 msec), 3.1%; in test [2] (dose 0.3 mg/kg, BCL 200 msec) it was 18.6%. The “Percent change” value was 12.6% in test [2] (dose 0.3 mg/kg, BCL 250 msec); 13.7% in test [2] (dose 0.3 mg/kg, BCL 300 msec); 10.1% in test [2] (dose 0.3 mg/kg, BCL 400 msec); 9.8% in test [2] (dose 0.3 mg/kg, BCL 500 msec); 37.9% in test [2] (dose 1 mg/kg, BCL 250 msec); 33.2% in test [2] (dose 1 mg/kg, BCL 300 msec). Further, the “Percent change” value in test [2] (dose 1 mg/kg, BCL 400 msec) came to 23.4%; in test [2] (dose 1 mg/kg, BCL 500 msec), 20.6%.

As for `O=c1[nH]c2ccccc2cc1CN1CCC(CCc2cccc(-c3ccccc3)c2)CC1` [Example 381, 1-[(2-Oxo-1,2-dihydro-3-quinolinyl)methyl]-4-[2-(3-(phenylphenyl)ethyl]piperidine oxalate], the IC50 in test [3] is 100 µM; in test [5] it was 3 µM. In test [4], the ED50 is 0.56 mg/kg.

By IC50 is commonly meant the midpoint of a concentration-inhibition curve.

For the origin of these results see patent US6784192B2, “Piperidine compound and pharmaceutical composition thereof” (Eisai Co., Ltd., priority 2000, dated 2004).
